Legend:
GP Ib = experiment: Platelet aggregation via the GP Ib pathway (α-thrombin with PAR-1 blocked / polymerizing fibrin); format: cell-based, human
Procedure: This antibody is known to selectively bind to the thrombin binding site.
The presence of three distinct thrombin receptors on human platelets was shown in experiments with combinations of inhibitors and PAR-4 desensitization. Platelets treated with SCH203099 (7.5 μM) plus ATAP-2 (50 μg/ml) have the PAR-1 receptor blocked at two levels, the tethered ligand and the PAR-1 receptor site for the tethered ligand. […] The delay in aggregation can be explained by the time required for the generation of polymerizing fibrin which would participate in platelet aggregation. This alternative α-thrombin pathway would be obscured normally by the rapid acting PAR-1 pathway.
(§1) AEBSF blocks the catalytic site, but not the GP Ib-binding site of thrombin. Platelets were treated under identical conditions with AEBSF plus the thrombin substrate CBS 34.47 (7.5 μM) in order to determine if AEBSF remains active in the presence of the polymerizing fibrin-thrombin complex. After 5 minutes incubation, the platelets were pelleted in a microcentrifuge for 4 minutes at 14,000 rpm and the generation of product was monitored at 405 nm. AEBSF inhibited thrombin activity in excess of 90%.

human platelets = experiment: Platelet aggregation of washed platelets (aggregometer), α-thrombin and other agonists
Procedure: The requirement of GP Ib for polymerizing fibrin was defined in a series of studies where results were compared with thrombin plus fibrinogen added to platelets versus platelets added to polymerizing fibrin. Washed platelets (50 μl) as a 10× concentrate were added to 0.05 to 0.1 U/ml α-thrombin plus fibrinogen pre-incubated for 2 minutes (polymerizing fibrin) in 430 μl buffer.
Blood was drawn by venopuncture into plastic tubes that contained 1/10 volume 3.8% citrate and platelet-rich plasma (PRP) was prepared in accordance with known techniques (Soslau, G. and J. Giles. 1982. Thrombos. Res. 26:443-455). Blood samples were obtained from healthy donors who were medication free. Washed platelets were prepared from the PRP by known methods (Basheer, A. R. et al. 1995. Biochim. Biophys. Acta 1250:97-109). Briefly, PRP was diluted with 3 volumes of 100 nM citrate buffer (pH 6.0) plus 1 to 2 volumes of hepes Tyrode's buffer (pH 7.4), final volume of 50 ml, and resuspended in hepes Tyrode's buffer with 1 mg/ml dextrose plus 1 mg/ml bovine serum albumin at 2×10^6/μl to 3×10^6/μl (a 10× normal concentration).
Platelet aggregations were performed on a dual-channel Chronolog lumi aggregometer (Chronolog Corp., Havertown, Pa.) by known methods (Soslau, G. et al. 1988. Biochem. Biophys. Res. Commun. 15:909-916). Aggregations were conducted with 480 μl washed platelets or a 50 μl sample of the concentrated platelets added to 430 μl hepes Tyrode's buffer with a final platelet count of 2×0^5/μl to 3×10^5/μl. Agonists and antagonists were added at various concentrations.

thrombin = experiment: Thrombin activity with thrombin substrate CBS 34.47, product monitored at 405 nm; format: biochemical; conditions: in presence of polymerizing fibrin-thrombin complex and platelets; CBS 34.47 7.5 μM; 5 minutes incubation
Procedure: as §1

platelets [1] = experiment: Synergistic platelet aggregation with suboptimal doses of agonists; format: cell-based, human; conditions: PAR1 inactivated
Procedure: In all cases, the sum of the aggregation induced by the individual agonists at suboptimal concentrations varied between 0 and 15% (agonist concentrations varied between 0.01 and 0.005 U/ml for α-thrombin; 0.1 to 2 nM for γ-thrombin; 0.38 to 0.76 μM for TRAP-1; 175 to 350 μM for TRAP-4). The low dose of α-thrombin employed was below the level required to function at PAR-1 or PAR-4 but adequate to activate GP Ib. TRAP-4 and γ-thrombin appeared to function only at PAR-4.

PAR-4 = target: T1, PAR-4 (Homo sapiens, UniProt Q96RI0); experiment: Platelet aggregation via the PAR-4 pathway (TRAP-4 / γ-thrombin); format: cell-based; conditions: SCH203099 5 to 10 μM
T1 sequence (Q96RI0 18-385): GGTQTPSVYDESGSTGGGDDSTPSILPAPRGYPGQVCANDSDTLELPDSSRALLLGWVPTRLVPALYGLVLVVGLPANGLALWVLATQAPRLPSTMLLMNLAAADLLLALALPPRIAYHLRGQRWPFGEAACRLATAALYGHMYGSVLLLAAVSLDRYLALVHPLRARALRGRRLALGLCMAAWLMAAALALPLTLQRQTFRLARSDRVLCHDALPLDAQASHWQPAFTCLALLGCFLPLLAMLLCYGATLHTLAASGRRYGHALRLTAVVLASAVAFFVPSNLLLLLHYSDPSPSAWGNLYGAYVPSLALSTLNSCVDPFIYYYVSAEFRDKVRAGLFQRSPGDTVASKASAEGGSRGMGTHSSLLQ

platelets [2] = experiment: ATP release (platelet release reaction); format: cell-based, human; conditions: versus corresponding control samples
Procedure: (§2) Further studies were conducted to distinguish between polymerizing fibrin-dependent platelet aggregation versus platelet trapping. True platelet aggregation involves signal transduction, second messenger formation with subsequent mobilization of internal calcium stores and the platelet release reaction. Platelet trapping, in contrast, by polymerizing fibrin would not involve any of these secondary responses. […] The platelet release reaction was monitored by release of dense granule ATP. Here the release reaction was followed simultaneously with aggregation. […] However, conditions that induced platelet adhesion/polymerizing fibrin-trapping were not associated with any ATP release.
The platelet release reaction was monitored simultaneously in some experiments with aggregation per known techniques (Soslau, G. and J. Parker. 1992. Thromb. Res. 66:15-21). The release of dense granule ATP from aggregating platelets was detected as light emission in the Chronolog lumi-aggregometer produced by the reaction of ATP with luciferin catalyzed by luficerase (chrono-lume).

PAR-1 = PAR-1 (Homo sapiens, UniProt P25116); experiment: Platelet aggregation via the PAR-1 pathway (TRAP-1 / rapid onset α-thrombin response); format: cell-based
From the text: Therefore, GP Ib is the likely candidate.

platelets [3] = experiment: Calcium mobilization in Fura-2 loaded platelets; format: cell-based, human; conditions: 10 μM SCH 203099 for one hour
Procedure: as §2
The mobilization of internal stores of calcium, [Ca^+2]i, was monitored with a Hitachi F-2000 fluorescence spectrophotometer in the presence of extracellular EGTA to chelate the extracellular Ca^+2 (Soslau, G. et al. 1995. Biochim. Biophys. Acta 1268:73-80). Platelets, as PRP, were pre-loaded with 1 μM Fura-2 AM for 45 to 60 minutes and then washed and resuspended in hepes Tyrode's buffer at a concentration of […]. Samples were incubated at room temperature with or without 10 μM SCH 203099 for one hour prior to analysis. […] Agonists were added through an injection port at various concentrations. Excitation wavelengths were 340 nm and 380 nm and emission was measured at 505 nm. […]

platelets [4] = experiment: Platelet aggregation induced by U46619 and ADP; format: cell-based, human
α-thrombin = experiment: Sensitivity of α-thrombin to thrombin inhibitors; format: cell-based
β-thrombin = experiment: Sensitivity of β-thrombin to thrombin inhibitors; format: cell-based
γ-thrombin = experiment: Sensitivity of γ-thrombin to thrombin inhibitors; format: cell-based

Chain of PAR-1 (P25116 22-425): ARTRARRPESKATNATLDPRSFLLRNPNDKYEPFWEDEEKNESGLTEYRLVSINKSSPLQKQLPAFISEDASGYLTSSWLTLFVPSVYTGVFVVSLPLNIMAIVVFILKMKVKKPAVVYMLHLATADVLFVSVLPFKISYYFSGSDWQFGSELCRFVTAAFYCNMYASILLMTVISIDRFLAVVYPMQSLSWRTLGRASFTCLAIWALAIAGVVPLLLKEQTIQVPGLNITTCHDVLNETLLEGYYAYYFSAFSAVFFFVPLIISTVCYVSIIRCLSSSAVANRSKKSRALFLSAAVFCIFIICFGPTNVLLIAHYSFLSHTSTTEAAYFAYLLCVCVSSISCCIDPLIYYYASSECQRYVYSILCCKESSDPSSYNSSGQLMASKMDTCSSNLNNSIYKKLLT

## NCCc1ccc(S(=O)(=O)F)cc1 [AEBSF]
GP Ib
  effect on aggregation, added after formation of the thrombin-fibrin complex but prior to the addition of platelets: did not inhibit
Human platelets
  effect on aggregation, added to thrombin prior to the addition of fibrinogen and platelets: completely inhibited
thrombin
  inhibition of thrombin activity: > 90%

## CNc1nc(NC2CC2)nc2ccc3c(ccn3Cc3ccc(C(C)C)cc3)c12 [SCH203099]
Platelets [1]
  response of treated platelets to low dose α-thrombin plus TRAP-4: significant response
PAR-4; 1 mM TRAP-4
  inhibition of platelet activation induced by TRAP-4: did not inhibit
PAR-4; 10 to 30 nM γ-thrombin
  inhibition of platelet activation induced by γ-thrombin: did not inhibit
Platelets [2]
  ATP release of drug-treated platelets aggregating under conditions dependent on polymerizing fibrin: equal amounts of ATP release
PAR-1; SCH203099 5 to 10 μM
  inhibition of TRAP-1-induced aggregation: completely inhibited
Platelets [3]
  mobilization of internal calcium in response to TRAP-1 in treated platelets: only control platelets responded
Platelets [3]; compared to controls
  mobilization of internal calcium in response to α-thrombin in treated platelets: delayed
Human platelets; relative to controls, ultimately reached a similar level of aggregation
  aggregation profile of preincubated/treated platelets stimulated with α-thrombin: delayed aggregation profile

## GPRP
Human platelets; thrombin plus fibrinogen
  effect on α-thrombin-induced platelet aggregation: no significant effect

## RGDS
Platelets [4]
  effect on aggregation induced by ADP: completely blocked
  effect on aggregation induced by U46619: completely blocked
GP Ib
  aggregation with polymerizing γ407 via the GP Ib pathway in the presence of RGDS: at a reduced level
GP Ib; platelets added to α-thrombin plus fibrinogen pre-incubated 2 minutes
  effect on aggregation in the presence of polymerizing fibrin: not affected significantly
PAR-1; for the first few minutes, aggregation then ensued via the GP Ib pathway
  effect on rapid onset α-thrombin-induced PAR-1 pathway aggregation: inhibited
PAR-1; until γ407 began to polymerize
  effect on aggregation via the PAR-1 pathway when γ407 replaced normal fibrinogen: initially blocked
Human platelets; residual adhering/endogenous fibrinogen only
  aggregation in the presence of RGDS without added fibrinogen: none occurred

## hirudin
GP Ib; polymerizing fibrin present
  effect on aggregation, inhibitor added 2 minutes after fibrinogen was pre-incubated with thrombin, platelets added 30 seconds later: prevent aggregation completely
α-thrombin
  inhibition of α-thrombin: completely inhibited
Human platelets; hirudin 1 to 2 U/ml
  effect on aggregation, inhibitor added to platelets followed by thrombin plus fibrinogen: completely inhibited
β-thrombin
  inhibition of β-thrombin: completely inhibited
γ-thrombin
  sensitivity of γ-thrombin to the inhibitor: totally insensitive

From US20020103107A1, “Screening assay for anti-thrombotic/anti-platelet activity” (priority 2000, published 2002)
